Results taken from BindingDB's records for doi:10.1016/j.bmcl.2004.05.088 (Eli Lilly, 2004).
Where a name gives a salt, the structure may show the parent alone.

Experiments:
Test in all cases: CDK Kinase Inhibition Assay
[1] = biological target: Cyclin-dependent kinase 4/G1/S-specific cyclin-D1 (Homo sapiens, UniProt P11802); settings: pH 7; 22 °C
Description: (§1) In vitro CDK assay using purified enzyme, was incubated at room temperature with substrate, and test compounds in the presence of ATP/[gamma-33P]ATP. 33P incorporation was measured with a Top Count (Packard). IC50 is the inhibitor concentration which inhibits 50% of kinase activity that catalyzes the transfer of the terminal phosphate from 33P labeled ATP to the substrate.

[2] = biological target: Cyclin-dependent kinase 2/G1/S-specific cyclin-E1 (Homo sapiens, UniProt P24941); settings: 25 °C
Description: as §1

[3] = biological target: cAMP-dependent protein kinase catalytic subunit alpha (Bos taurus, UniProt P00517); settings: 25 °C

Sequence of Cyclin-dependent kinase 4/G1/S-specific cyclin-D1 (P11802 whole entry): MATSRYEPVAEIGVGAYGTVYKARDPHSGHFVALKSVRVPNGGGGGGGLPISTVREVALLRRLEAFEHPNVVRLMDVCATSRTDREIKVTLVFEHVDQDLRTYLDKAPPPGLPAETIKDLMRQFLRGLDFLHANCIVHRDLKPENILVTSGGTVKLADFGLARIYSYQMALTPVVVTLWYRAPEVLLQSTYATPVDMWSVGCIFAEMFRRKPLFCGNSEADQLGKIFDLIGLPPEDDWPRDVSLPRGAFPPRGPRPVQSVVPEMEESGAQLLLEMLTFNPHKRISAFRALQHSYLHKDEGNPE
Sequence of Cyclin-dependent kinase 4/G1/S-specific cyclin-D1 (P24385 whole entry, further chain): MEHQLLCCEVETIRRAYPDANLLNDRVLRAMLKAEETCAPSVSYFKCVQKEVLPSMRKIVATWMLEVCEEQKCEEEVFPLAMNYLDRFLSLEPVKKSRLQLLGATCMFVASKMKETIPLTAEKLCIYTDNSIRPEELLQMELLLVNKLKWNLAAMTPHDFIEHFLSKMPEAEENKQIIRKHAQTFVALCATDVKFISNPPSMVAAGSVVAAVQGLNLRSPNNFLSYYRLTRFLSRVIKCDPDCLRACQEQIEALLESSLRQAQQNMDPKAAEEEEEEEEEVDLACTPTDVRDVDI

SMILES	IC50 [1] [nM]	IC50 [2] [nM]	IC50 [3] [nM]
O=C1NC(=O)c2c1c1c3ccccc3[nH]c1c1c2c2cccc3c2n1CCNC3 [1,4,14,24-tetraazaheptacyclo[16.8.1.0^{2,17}.0^{3,11}.0^{5,10}.0^{12,16}.0^{22,27}]heptacosa-2(17),3(11),5(10),6,8,12(16),18(27),19,21-nonaene-13,15-dione hydrochloride]	27	38	–
O=C1NC(=O)c2c1c1c3ccccc3[nH]c1c1c2c2cccc3c2n1CCNCC3 [1,4,14,25-tetraazaheptacyclo[16.9.1.0^{2,17}.0^{3,11}.0^{5,10}.0^{12,16}.0^{22,28}]octacosa-2(17),3(11),5(10),6,8,12(16),18(28),19,21-nonaene-13,15-dione hydrochloride]	160	–	–
O=C1NC(=O)c2c1c1c3ccc(C(F)(F)F)c(CO)c3[nH]c1c1c2c2cccc3c2n1CCNC3 [6-(hydroxymethyl)-7-(trifluoromethyl)-1,4,14,24-tetraazaheptacyclo[16.8.1.0^{2,17}.0^{3,11}.0^{5,10}.0^{12,16}.0^{22,27}]heptacosa-2(17),3(11),5(10),6,8,12(16),18(27),19,21-nonaene-13,15-dione hydrochloride]	44	–	–
O=C1NC(=O)c2c1c1c3cc(F)c(F)cc3[nH]c1c1c2c2cccc3c2n1CCNC3 [7,8-difluoro-1,4,14,24-tetraazaheptacyclo[16.8.1.0^{2,17}.0^{3,11}.0^{5,10}.0^{12,16}.0^{22,27}]heptacosa-2(17),3(11),5(10),6,8,12(16),18(27),19,21-nonaene-13,15-dione hydrochloride]	110	–	> 2000
O=C1NC(=O)c2c1c1c3ccc(C(F)(F)F)cc3[nH]c1c1c2c2cccc3c2n1CCNC3 [7-(trifluoromethyl)-1,4,14,24-tetraazaheptacyclo[16.8.1.0^{2,17}.0^{3,11}.0^{5,10}.0^{12,16}.0^{22,27}]heptacosa-2(17),3(11),5(10),6,8,12(16),18(27),19,21-nonaene-13,15-dione hydrochloride]	69	–	> 2000
O=C1NC(=O)c2c1c1c3ccc(F)cc3[nH]c1c1c2c2cccc3c2n1CCNC3 [7-fluoro-1,4,14,24-tetraazaheptacyclo[16.8.1.0^{2,17}.0^{3,11}.0^{5,10}.0^{12,16}.0^{22,27}]heptacosa-2(17),3(11),5(10),6,8,12(16),18(27),19,21-nonaene-13,15-dione hydrochloride]	–	16	–
O=C1NC(=O)c2c1c1c3cc(F)ccc3[nH]c1c1c2c2cccc3c2n1CCNC3 [8-fluoro-1,4,14,24-tetraazaheptacyclo[16.8.1.0^{2,17}.0^{3,11}.0^{5,10}.0^{12,16}.0^{22,27}]heptacosa-2(17),3(11),5(10),6,8,12(16),18(27),19,21-nonaene-13,15-dione hydrochloride]	34	–	–
NCC(=O)N1CCn2c3c(cccc3c3c4c(c5c6ccccc6[nH]c5c32)C(=O)NC4=O)C1 [24-(2-aminoacetyl)-1,4,14,24-tetraazaheptacyclo[16.8.1.0^{2,17}.0^{3,11}.0^{5,10}.0^{12,16}.0^{22,27}]heptacosa-2(17),3(11),5(10),6,8,12(16),18(27),19,21-nonaene-13,15-dione hydrochloride]	100	–	> 2000
CC(C)N1CCn2c3c(cccc3c3c4c(c5c6ccccc6[nH]c5c32)C(=O)NC4=O)C1 [24-(propan-2-yl)-1,4,14,24-tetraazaheptacyclo[16.8.1.0^{2,17}.0^{3,11}.0^{5,10}.0^{12,16}.0^{22,27}]heptacosa-2(17),3(11),5(10),6,8,12(16),18(27),19,21-nonaene-13,15-dione]	78	–	> 2000
Cn1cnc(S(=O)(=O)N2CCn3c4c(cccc4c4c5c(c6c7ccccc7[nH]c6c43)C(=O)NC5=O)C2)c1 [24-[(1-methyl-1H-imidazole-4-)sulfonyl]-1,4,14,24-tetraazaheptacyclo[16.8.1.0^{2,17}.0^{3,11}.0^{5,10}.0^{12,16}.0^{22,27}]heptacosa-2(17),3(11),5(10),6,8,12(16),18(27),19,21-nonaene-13,15-dione]	120	–	> 2000
CS(=O)(=O)N1CCn2c3c(cccc3c3c4c(c5c6ccccc6[nH]c5c32)C(=O)NC4=O)C1 [24-methanesulfonyl-1,4,14,24-tetraazaheptacyclo[16.8.1.0^{2,17}.0^{3,11}.0^{5,10}.0^{12,16}.0^{22,27}]heptacosa-2(17),3(11),5(10),6,8,12(16),18(27),19,21-nonaene-13,15-dione]	53	–	> 2000
